Measured values: BindingDB's records for doi:10.1007/s10822-022-00478-x (Roche Innovation Center Basel, F. Hoffmann-La Roche Ltd., 2022)

molecular target: cAMP and cAMP-inhibited cGMP 3',5'-cyclic phosphodiesterase 10A (Homo sapiens, UniProt Q9Y233); assay: PDE10A assay
In short: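 Human PDE10A (2 ng/well) preincubated 15 min RT with compound in HEPES pH 7.5, 10 mM MgCl2, BSA, then reacted 15 min with 50 nM [3H]cGMP/cGMP substrate. Stopped with Y-Si SPA beads; bound radioactivity counted, IC50 from four-parameter logistic, pIC50 = −log10(IC50).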

| SMILES | IC50 |
| --- | --- |
| CCOC(=O)c1cnn(C)c1C(=O)Nc1cn(-c2ccccn2)cn1 [Roche-Dataset for PDE10A, Compound 960] | 2670 nM |
| O=C(NCCc1noc(Cc2ccccc2)n1)c1nc(C2CC2)cnc1Nc1cncnc1 [Roche-Dataset for PDE10A, Compound 275] | 137 nM |
| Cc1c(Br)cn2nc(/C=C/c3nc(N4CCCC4)nn3C)nc2c1C [Roche-Dataset for PDE10A, Compound 406] | 12 nM |
| O=C(Nc1cccc(C(=O)N2CCCC2)n1)c1nc(C2CC2)cnc1Nc1cncnc1 [Roche-Dataset for PDE10A, Compound 830] | 10 nM |
| Cn1cc(-c2ccccc2)nc1CCNC(=O)c1cccn2cnnc12 [Roche-Dataset for PDE10A, Compound 182] | 392 nM |
| CCOc1cc(NC(=O)c2nc(C3CC3)cnc2Nc2cncnc2)ccn1 [Roche-Dataset for PDE10A, Compound 765] | 53 nM |
| O=C(NCCC1CCOCC1)c1nc(C2CC2)cnc1Nc1cncnc1 [Roche-Dataset for PDE10A, Compound 915] | 1470 nM |
| Cn1ncc(Br)c1C(=O)Nc1ccn2nc(-c3ccccc3)nc2c1 [Roche-Dataset for PDE10A, Compound 371] | 35 nM |
| Cc1[nH]c(-c2cccnc2)nc1CCN1C(=O)c2ccccc2C1=O [Roche-Dataset for PDE10A, Compound 260] | 1540 nM |
| Cn1ncc(C(=O)N2CCC2)c1C(=O)Nc1ccn2nc(-c3ccnc(Cl)c3)nc2c1 [Roche-Dataset for PDE10A, Compound 218] | 6.9 nM |
| Cc1nc2ccccc2nc1OCc1csc(N2CCOCC2)n1 [Roche-Dataset for PDE10A, Compound 951] | 2370 nM |
| COc1cc(-c2nc3cc(NC(=O)c4c(C(=O)N5CCC5)cnn4C)ccn3n2)ccn1 [Roche-Dataset for PDE10A, Compound 185] | 4.73 nM |
| COc1cccc(-c2cn3c(n2)C[C@H](NC(=O)c2c(C(=O)N4CCC4)cnn2C)CC3)c1 [Roche-Dataset for PDE10A, Compound 148] | 910 nM |
| Cn1ncc(C(=O)N2CCC2)c1C(=O)Nc1n[nH]cc1C#N [Roche-Dataset for PDE10A, Compound 1112] | 325 nM |
| Cn1cc(-c2ccccc2)nc1COc1nc(OC2CCOCC2)c2cc(Cl)ccc2n1 [Roche-Dataset for PDE10A, Compound 100] | 16 nM |
| CNC(=O)c1cc2[nH]c(-c3ccccc3)nc2cc1NC(=O)c1cc(C)n(C)n1 [Roche-Dataset for PDE10A, Compound 391] | 197 nM |
| Cc1c(Br)cn2nc(/C=C/c3nc(N4CCCC4)n(C)n3)nc2c1C [Roche-Dataset for PDE10A, Compound 364] | 73 nM |
| COCCCNC(=O)c1nc(C2CC2)cnc1Nc1cncnc1 [Roche-Dataset for PDE10A, Compound 1027] | 944 nM |
| Cc1nc2ccccc2nc1OCc1csc(N2CCCC2)n1 [Roche-Dataset for PDE10A, Compound 1025] | 65 nM |
| Cn1cc(-c2ccccc2)nc1CCc1nc2cccc(Cl)c2c(=O)[nH]1 [Roche-Dataset for PDE10A, Compound 52] | 122 nM |
| CNC(=O)c1cc2[nH]c(-c3ccccc3)nc2cc1NC(=O)c1c(Cl)c(C)nn1C [Roche-Dataset for PDE10A, Compound 358] | 22 nM |
| O=C(Nc1snnc1-c1ccccc1)c1nc(C2CC2)ccc1Nc1cncnc1 [Roche-Dataset for PDE10A, Compound 818] | 7.58 nM |
| Cc1cc(-n2nc(CCc3nc4c(C(F)(F)F)cc(Cl)c(C)n4n3)nc2N2CCCC2)ccn1 [Roche-Dataset for PDE10A, Compound 40] | 9.83 nM |
| Cn1ncc(C(=O)N2CCC2)c1C(=O)Nc1cc2nc(N3CCOCC3)nn2cn1 [Roche-Dataset for PDE10A, Compound 422] | 4.83 nM |

| SMILES | IC50 |
| --- | --- |
| CCOC(=O)c1nnsc1NC(=O)c1nc(C2CC2)ccc1Nc1cncnc1 [Roche-Dataset for PDE10A, Compound 1107] | 36 nM |
| CC(C)(O)CNC(=O)c1cccc(NC(=O)c2nc(C3CC3)cnc2Nc2cncnc2)n1 [Roche-Dataset for PDE10A, Compound 894] | 5.48 nM |
| O=C(NCc1cocn1)c1nc(C2CC2)cnc1Nc1cncnc1 [Roche-Dataset for PDE10A, Compound 1089] | 1860 nM |
| CCc1ccc(NC(=O)c2nc(C3CC3)cnc2Nc2cncnc2)c(C(=O)NCC(C)(C)O)n1 [US8703768, 181] | 0.41 nM |
| Cn1ncc(C(=O)N2CCC2)c1C(=O)Nc1cc2ccccn2n1 [Roche-Dataset for PDE10A, Compound 1147] | 692 nM |
| CN(C)c1nc(OCc2cccc(N3CCCC3)n2)nc2ccc(Cl)cc12 [6-chloro-n,n-dimethyl-2-((6-(pyrrolidin-1-yl)pyridin-2-yl)methoxy)quinazolin-4-amine] | 7.71 nM |
| CS(=O)(=O)Nc1cccc(NC(=O)c2nc(C3CC3)cnc2Nc2cncnc2)c1 [Roche-Dataset for PDE10A, Compound 900] | 15 nM |
| Cc1cc(Cl)cc2c(=O)[nH]c(CCc3nc(-c4ccccc4)cn3C)nc12 [Roche-Dataset for PDE10A, Compound 70] | 81 nM |
| O=C(Nc1ccnc(N2CCOCC2)c1)c1nc(C2CC2)cnc1Nc1cncnc1 [Roche-Dataset for PDE10A, Compound 815] | 8.56 nM |
| Cc1ncc(C)n2nc(/C=C/c3ncn(-c4ccccc4)n3)nc12 [Roche-Dataset for PDE10A, Compound 629] | 162 nM |
| O=C(NC1CCN(c2ccccn2)CC1)c1nc(C2CC2)ccc1Nc1cncnc1 [Roche-Dataset for PDE10A, Compound 1045] | 197 nM |
| Cn1cc(-c2ccccc2)nc1COc1nc(N2CCOCC2)c2ccccc2n1 [Roche-Dataset for PDE10A, Compound 240] | 11 nM |
| Cc1cc(NC(=O)c2ccc3cc(-c4ccccc4)nn3c2)cc(C)n1 [Roche-Dataset for PDE10A, Compound 286] | 75 nM |
| Cn1ncc(C(=O)N2CCOCC2)c1C(=O)N[C@H]1CCn2cc(-c3ccc(F)cc3)nc2C1 [Roche-Dataset for PDE10A, Compound 938] | 624 nM |
| CN(c1nc2cc(NC(=O)c3c(C(=O)O)cnn3C)ccn2n1)C1CC1 [Roche-Dataset for PDE10A, Compound 649] | 42 nM |
| CC(C)c1cc(NC(=O)c2c(C(=O)N3CCC3)cnn2C)[nH]n1 [Roche-Dataset for PDE10A, Compound 1070] | 10000 nM |
| Cn1nccc1NC(=O)c1nc(C2CC2)ccc1Nc1cncnc1 [Roche-Dataset for PDE10A, Compound 1033] | 104 nM |
| Cn1nc(N2CCCC2)nc1/C=C/c1nc(N2CCCC2)nn1C [Roche-Dataset for PDE10A, Compound 550] | 188 nM |
| CC(=O)N1CC(C)(C)c2ccc(NC(=O)c3nc(C4CC4)cnc3Nc3cncnc3)cc21 [Roche-Dataset for PDE10A, Compound 952] | 7.64 nM |
| Cn1ncc(C(=O)N2CCC2)c1C(=O)Nc1cn(-c2ccccn2)cn1 [Roche-Dataset for PDE10A, Compound 833] | 46 nM |
| Cc1cc(Nc2cncnc2)cc(C(=O)Nc2cc(-c3ccccn3)nn2C)n1 [Roche-Dataset for PDE10A, Compound 542] | 92 nM |
| O=C(NCCN1CCCC1=O)c1nc(C2CC2)cnc1Nc1cncnc1 [Roche-Dataset for PDE10A, Compound 779] | 2070 nM |
| CS(=O)(=O)N1CCC(NC(=O)c2nc(C3CC3)cnc2Nc2cncnc2)CC1 [Roche-Dataset for PDE10A, Compound 1072] | 2860 nM |
